Here are results for three compounds from patent US12122811B2, “BDNF mimetic peptide amphiphiles” (Northwestern University, priority 2018, dated 2024).

One assay concerns the target T1, TrkB receptor (Mus musculus, UniProt P15209).
T1 construct: Protein was extracted from primary neuronal cultures; endogenous in cells; host or cells: primary cortical neurons from E16 CD1 mouse embryos, 14 DIV
The assay can be described thus: TrkB receptor phosphorylation (p-TrkB) by western blot in primary cortical neurons. The following applies: for TrkB phosphorylation: 4 and 6 h timepoints, 0.5 μM. The format is cell-based. On the procedure: 2.3.2. Dissection of Embryonic Primary Cortical Neurons. Neurons were obtained from embryonic brains as described elsewhere.^2 Briefly, time-pregnant mouse was sacrificed by cervical dislocation and the embryos were extracted at embryonic day 16 (E16). Cerebral cortices were dissected from the mouse embryos and meninges were removed in a solution of Hank's Balanced Salt Solution (HBSS) with 1% pen-strep (Invitrogen) and then digested with trypsin (Invitrogen) and DNAse (Sigma-Aldrich) for 10 min at 37° C. The tissue was mechanically dissociated, centrifuged at 1000 g for 5 min, and resuspended in CO2-equilibrated Neurobasal (NB) neuronal culture medium (Invitrogen) supplemented with 10% normal horse serum (NHS) (Invitrogen), 1% pen-strep (Invitrogen), 0.5 mM L-glutamine (Invitrogen), and 5.8 μL NaHCO3/mL (Sigma-Aldrich). The cell suspension was pre-plated at 37° C. for 30 min. Afterwards, the supernatant was collected, passed through a cell strainer with 100 μm pore size and centrifuged at 1000 g for 5 min. The pellet was resuspended in NB neuronal culture medium (1% NHS, 1% pen-strep, 0.5 mM L-glutamine, 22 μM glutamic acid (Sigma-Aldrich), 2% B27 (Gibco), and 5.8 μL NaHCO3/mL (Sigma-Aldrich), and plated at different densities (depending on the type of experiment, see below) directly on tissue culture plates coated with poly-D-lysine (Sigma-Aldrich). After 24 hs, the medium was replaced with serum-free neuronal culture medium (1% pen-strep, 0.5 mM L-glutamine, 2% B27, 5.8 μL NaHCO3/mL). Under these conditions, we obtained a neuron-enriched culture with a composition of approximately 10% glial cells.
BDNF PA Treatments and Cell Culture Procedures. Treatments were prepared by dissolving PA (including E2 Filler, E2 Filler+E4PEG, E2 Filler+Linear BDNF, E2 Filler+BDNF PAs) and BDNF peptide at different concentrations (0.5, 1.0 or 5.0 μM), in media without serum or B27 supplement or starvation media. Unless otherwise noted, BDNF PA, Linear BDNF PA, or E4PEG PAs were co-assembled at 10 mol % with E2 filler PA (total concentration of PA was 5.0, 10.0, or 50.0 μM respectively). For the co-assembly ratio study, BDNF PA was co-assembled at 10, 20, 50, 70, 90, and 100 mol %. Human/Murine/Rat BDNF protein (Peprotech) was resuspended at different concentrations (0.25, 0.5 and 1 nM) in starvation media.
For western blot, cells were cultured in 6 well plates at a density of approximately 900,000 cells/well for 14 DIV before being treated. Treatments were added for 2, 4, 6, 8, 12 or 24 h in vitro before protein was harvested. […] Protein was extracted after six hours of treatment.
Western Blot. Protein was extracted from primary neuronal cultures with Halt Protease and Phosphatase Inhibitor Cocktail (Thermo Scientific) and a BCA assay (Thermo Scientific) was performed to determine protein content of each sample. Cell protein was loaded into and separated using a 4-20% SDS-PAGE gel (Bio-Rad). It was then electrotransferred from the gel to a nitrocellulose membrane (Bio-Rad). The membranes were blocked with 5% milk solution (Bio-Rad) for 30 minutes followed by an overnight incubation with primary antibodies at 4° C. The following primary antibodies were used: rabbit anti-pTrkB (1:1000, Cell Signaling), rabbit anti-TrkB (1:1000, Cell Signaling), rabbit anti-Actin (1:2000, Sigma Aldrich), mouse anti-Actin (1:2000, Sigma Aldrich), rabbit anti-pPLCγ (1:1000, Cell Signaling), rabbit anti-PLCγ (1:1000, Cell Signaling), rabbit anti-pAKT (1:2000, Cell Signaling), mouse anti-AKT (1:2000, Cell Signaling), rabbit anti-pERK1+ERK2 (1:1000, Abcam), rabbit anti-ERK 1/2 (1:1000, Cell Signaling), rabbit anti-PSD95 (1:1000, Abcam), rabbit anti-MAP-2 (1:2000, BioLegend), and mouse anti-Tuj-1 (1:1000, BioLegend). Membranes were then incubated with their corresponding secondary HRP-conjugated antibodies (1:1000; ThermoFisher). Protein signals were detected using Radiance Bioluminescent ECL substrate (Azure Biosystems). […]

Assay [1] concerns mouse model of spinal cord injury. Put plainly: Mouse model of spinal cord injury, Basso Mouse Scale hind limb scoring. Conditions: 12 weeks after injury; BDNF PA co-assembled at 20 mol % with E2 PA gel, injected 24 h after injury. The format is in vivo. The text has this:
The spinal cord injury procedures used follow a standardized protocol to ensure a reproducible injury. Mice were anesthetized and their back is opened to reveal the vertebral column. The vertebral bone at T11 was surgically removed to reveal the spinal cord tissue. The mice were then transferred the impactor machine which is used to inflict a compression injury on the exposed spinal cord. The spinal cord was held in place using stereotactic clamps. The instrument inflicts a force of 70-80 kDynes and dwells in the place of the impact for 60 seconds to simulate a crush injury accident. This injury is quite severe. After each impact was performed, the instrument supplies a graph corresponding to the real force and trajectory of the impactor. This graph is used to compare and ensure that all animals receive an injury of the same nature. After the injury is inflicted, the animals were closed and allowed to rest for 24 hours.
The next day, the animals were re-opened and prepared for the “treatment” surgery. Before beginning the procedure, all animals underwent a behavioral assessment and mice with hind limb movement were discarded from the study. When the animal is re-opened, there was typically a dark, bruised area apparent where the crush injury took place the previous day. This is where the treatment was injected. A Hamilton syringe attached to a glass-pulled needle with a diameter of ˜300 μm was used to puncture the bruised dermis of the tissue and the treatment was injected into the underlying tissue cavity. Treatment types include; saline, and the C16V2A2E2 (E2) non-bioactive PA gel as negative controls, as well as the BDNF PA co-assembled at 20 mol % with the E2 non-bioactive PA gel.
After injection, the animals were closed and returned to cages to recover. Over the next 12 weeks, blinded hind limb behavioral scoring was performed to assess any functional changes (FIG. 21). A standardized “Basso Mouse Scale” was used (Basso et al. J Neurotrauma. 2006 May; 23(5):635-59.; herein incorporated by reference in its entirety). Two blinded researchers were either side of a runway where the mouse was guided to move in a straight line. As the mouse walks, each researcher grades the limb movement. Any discrepancies in evaluation were re-evaluated by a third researcher. The score for the two limbs was averaged and marked as the score for that animal.

For a further assay, the system named is cortical neurons. The assay can be described thus: Infiltration and maturation of cortical neurons on 3D PA gel scaffolds. The following applies: neurons on gels, one week. The assay is classed as cell-based, mouse. On the procedure: Gels were made using annealed PAs prepared with methods described herein 1. BDNF native protein or BDNF peptide were incorporated by mixing at 10 nM or 0.5 uM respectively, with E2 Filler PA gel at 1 wt % while it was in its liquid state. Silicon isolators with adhesive (Invitrogen) were placed on PDL coated glass coverslips. 70 μL of PA liquid was pipetted into the circular silicon well and a Transwell insert was placed flush with the top of the well of the silicon insert. This step ensured a flat, even thickness for all gels. Gelling solution comprised of 125 mM NaCl, 3 mM KCl, and 25 mM CaCl2 was pipetted into the Transwell insert and allowed to slowly soak down into the material from the top. The insert prevented the gel from swelling more than the thickness of the silicon isolator. All gels were incubated at 37° C. for 5 min before removing the Transwell insert.
Infiltration Study. Gels were prepared as described in 2.1.2. Gels were then rinsed with media one time before cells were seeded on top at a density of approximately 42,000 cells/well. Cells were cultured for one week in vitro. Half of the gels were analyzed by patch clamp analysis (see section 3.4.9. Other gels were fixed with 4% PFA to perform infiltration studies. Cell were stained for MAP2, TUJ-1 and DAPI using immunocytochemistry methods described previously. Confocal microscopy was used to make z-stack reconstructions of each gel. The MultiMeasure function in the ROI manager of ImageJ was used to measure the depth of pixels for each channel which was then plotted as intensity vs depth in the gel. The average intensity of MAP2 was measured by averaging the mean intensities obtained from maximum intensity projections of z-stacks images of gels.

Non-standard residues stand in square brackets, D forms with d. Primed or numbered codes have the meaning given here. No end group written: not given here. PEG6′ = PEG6 spacer

T1 sequence (P15209 32-821): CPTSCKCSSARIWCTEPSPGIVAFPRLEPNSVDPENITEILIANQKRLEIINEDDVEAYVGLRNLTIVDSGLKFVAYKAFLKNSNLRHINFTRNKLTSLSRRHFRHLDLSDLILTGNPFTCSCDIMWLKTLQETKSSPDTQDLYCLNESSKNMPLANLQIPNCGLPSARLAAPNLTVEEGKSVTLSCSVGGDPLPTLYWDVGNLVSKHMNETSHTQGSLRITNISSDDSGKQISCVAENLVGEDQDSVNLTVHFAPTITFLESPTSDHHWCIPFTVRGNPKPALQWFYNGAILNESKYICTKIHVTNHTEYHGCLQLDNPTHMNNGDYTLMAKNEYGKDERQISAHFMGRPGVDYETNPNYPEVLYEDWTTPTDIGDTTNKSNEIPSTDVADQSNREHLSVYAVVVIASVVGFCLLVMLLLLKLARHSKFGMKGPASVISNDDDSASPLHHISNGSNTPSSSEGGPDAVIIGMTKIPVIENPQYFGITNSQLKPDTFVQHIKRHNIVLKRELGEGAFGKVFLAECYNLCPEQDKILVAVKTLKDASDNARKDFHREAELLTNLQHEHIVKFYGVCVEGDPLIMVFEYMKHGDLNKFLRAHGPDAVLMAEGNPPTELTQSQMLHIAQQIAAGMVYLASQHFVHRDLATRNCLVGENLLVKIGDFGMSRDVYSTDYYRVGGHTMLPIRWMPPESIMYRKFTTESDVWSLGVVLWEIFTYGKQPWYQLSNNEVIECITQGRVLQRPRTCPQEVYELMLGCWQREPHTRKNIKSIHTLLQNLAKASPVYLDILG

As to “Linear BDNF PA: non-cyclized BDNF PA synthesized as a control (chain 1 RKK[aK][dP][PEG6′]EEEEAAVV; chain 2 EEAAVV; not fully specified (C-terminus))”, the TrkB phosphorylation entry with TrkB receptor was “lack of TrkB phosphorylation”.

As for C16V2A2E2 (EEAAVV) [E2 Filler PA], the “final average limb behavioral score (Basso Mouse Scale)” value in assay [1] is reported as 2.4. The TrkB phosphorylation result with TrkB receptor is listed as “none of these control conditions were able to induce TrkB phosphorylation”. Moreover, in the assay on cortical neurons, the “distance that neurites infiltrated from the top of the scaffold” value came to 36.9±9.9 μm and the “normalized average of MAP2 intensity” value stood at 0.32±0.06.

For `COC(=O)[C@@]1(O)C[C@H]2O[C@]1(C)n1c3ccccc3c3c4c(c5c6ccccc6n2c5c31)C(=O)NC4` [K252a, reference compound], the “TrkB phosphorylation after pre-treatment with inhibitor K252a” value on TrkB receptor (K252a 2 h prior to treatment, 6 h post-treatment) is given as “completely blocked”.
